Measured values from patent US8343956B2, “Process for making a crystalline zilpaterol salt” (Intervet International B.V., priority 2008, dated 2013).
Where “and” joins values, the source holds several entries; their conditions need not be identical. Identical values can stand only once.

Test: Particle Size Distribution of zilpaterol hydrochloride batches
Assay type: physicochemical
Details: batches from crystallization process of Examples 4
Description: As used herein, particle size refers to a number particle size as measured by conventional particle size measuring techniques well known to those skilled in the art, such as laser scattering, sedimentation field flow fractionation, photon correlation spectroscopy, or disk centrifugation.
The particle size measurement indicated as Particle Size Distribution (relative amounts of particles present, sorted according to size) can be e.g. performed with a Malvern Mastersizer 2000 with the Hydro 2000G measuring cell, or with a Horiba LA-910 laser scattering particle size distribution analyzer.

## CC(C)N[C@@H]1CCn2c(=O)[nH]c3cccc(c32)[C@H]1O (racemic) [Example 3, trans-(±)-4,5,6,7-tetrahydro-7-hydroxy-6-[(1-methylethyl)amino]-imidazo[4,5,1-jk][1]benzazepin-2(1H)-one]
Relative amount of crystal particles with size <=15 μm
  Particle size Distribution <=15 μm: 2.9% and 1.6% and 3.0%
Relative amount of crystal particles with size >=200 μm
  Particle size Distribution >=200 μm: 7.8% and 14.3% and 11.0%
Relative amount of crystal particles with size >=250 μm
  Particle size Distribution >=250 μm: 0.3% and 1.7% and 0.8%
Relative amount of crystal particles with size >=300 μm
  Particle size Distribution >=300 μm: 0% and 0.2%
